From US6759212B1, “Cell cycle-regulating proteins” (Chugai Seiyaku Kabushiki Kaisha, priority 1997, dated 2004)

Tests used:
NRK-49F cells = experiment: Abnormal cytokinesis: cells having two or more nuclei after transient transfection; assay type: cell-based, rat; conditions: 72 hours after transfection
Excerpt: (§1) To confirm the generality of this observation, AIM-1 (WT) and AIM-1 (K-R) plasmids were transiently expressed in NRK-49F cells and human diploid fibroblast KD cells and the results were compared with those obtained in a control transfected with vector alone. These constructs were transfected into cell-s with a reporter construct […] to prepare β-galactosidase-expressing plasmids for use as a positive internal control for transfection (Table 1).
(§2) (2) Abnormal Cytokinesis in Cells Expressing AIM-1 (K-R) Plasmid FLAG-AIM-1 (WT), FLAG-AIM-1 (K-R) or a control plasmid pEF/hygI was cotransfected with a reporter construct RSV-β-galactosidase at a ratio of 10:1 into NRK-49F cells and human diploid fibroblast KD cells (a kind gift of late Dr. Takeo Kakunaga) by Lipofectin method. After 24 hours, 1×10^3 cells were seeded per 60 mm dish, and 72 hours after transfection, cells were fixed in 1.25% glutaraldehyde/PBS and stained by a method described in literature (Shu et al., J.C.S. 108:2955-62, 1995) to observe expression of β-galactosidase. MvlLu cells were also tested under the conditions described in (1) B above.
(§3) 1. The figures in the table mean the percentage of cells having two or more nuclei to β-galactosidase positive cells for NRK-49F cells and KD cells or the percentage of cells having two or more nuclei to the total number of cells for MvlLu cells. […]

[1] = test system: human diploid fibroblast KD cells; experiment: as above; assay type: cell-based; conditions: 72 hours after transfection
Excerpt: as §1, §2, §3

Mv1Lu cells [2] = experiment: Abnormal cytokinesis: cells having two or more nuclei, tetracycline-inducible expression, Giemsa staining; assay type: cell-based, mink; conditions: Mv1Lu, 72 hours
Protocol: (§4) MvlLu cells carrying vector alone, wild-type FLAG-AIM-1 (WT) or FLAG-AIM-1 (K-R) were grown in the presence or absence of doxycycline (tetracycline analog) for 24 hours and then subjected to western blot with anti-FLAG antibody (FIG. 4A). […] In addition, the size of these cells was much larger than normal cells (FIGS. 4Bf and 5D). In these abnormal cells, however, spindle. functions including chromosome disjunction and late anaphase spindle elongation as well as nuclear division appeared unaffected (data not shown). This was further confirmed by flow cytometry (FACS) (FIG. 4C). […] Namely, apocytes appeared because karyokinesis advances but cytokinesis is inhibited.
Then, asynchronous cells transfected with vector alone (a, d), FLAG-AIM-1 (WT) (b, e) or FLAG-AIM-1 (K-R) (c, f) were grown with (a-c) or without (d-f) DOX for 72 hours and stained with Giemsa's solution. Results are shown in FIG. 4B, wherein upper panels are called as a, b and c from left to right, and lower panels are called as d, e and f from left to right.
(2) Abnormal Cytokinesis in Cells Expressing AIM-1 (K-R) Plasmid FLAG-AIM-1 (WT), FLAG-AIM-1 (K-R) or a control plasmid pEF/hygI was cotransfected with a reporter construct RSV-β-galactosidase at a ratio of 10:1 into NRK-49F cells and human diploid fibroblast KD cells (a kind gift of late Dr. Takeo Kakunaga) by Lipofectin method. […]

Mv1Lu cells [3] = experiment: FACS analysis of DNA content (propidium iodide); assay type: cell-based, mink; conditions: 72 hour-induction
Protocol: as §4
Cell samples were harvested and fixed with ethanol, stained with propidium iodide for FACS analysis.

Mv1Lu cells [4] = experiment: Growth for 2 weeks with or without DOX, Giemsa staining; assay type: cell-based, mink; conditions: grown 2 weeks with or without doxycycline
Protocol: The nuclei of these AIM-1 (K-R)-expressing cells divided 3 to 4 times during 4 to 5 days, resulting in more than 10 nuclei per cell (FIG. 5D).
Mv1Lu cells transfected with FLAG-AIM-1 (WT) or FLAG-AIM-1 (K-R) were grown with or without DOX for 2 weeks and stained with Giemsa's solution.

Substance: AIM-1 (WT): wild-type rat AIM-1 protein kinase labeled with FLAG at the N-terminus, expressed from plasmid pUHD10-3 or pEF/hygI
- percentage of cells having two or more nuclei to β-galactosidase positive cells (NRK-49F cells): 7.8%
- percentage of cells having two or more nuclei to β-galactosidase positive cells [1]: 4.8%
- percentage of cells having two or more nuclei to the total number of cells (Mv1Lu cells [2]; DOX(+) (not induced)): 0.9%
- percentage of cells having two or more nuclei to the total number of cells (Mv1Lu cells [2]; DOX(−) (induced)): 2.8%
- cell population with 4N or 8N DNA / cell cycle pattern (FACS) (Mv1Lu cells [3]): normal cell cycle pattern
- effect on growth potency (mitotic inhibition) (Mv1Lu cells [4]): not
